Tested on: Sca+Lin- progenitors
Test: Generation of murine dendritic cells from bone marrow Sca+ progenitors, cell surface phenotype (Example 13)
Assay type: cell-based, C57BL/6 mice
Conditions: 10 μM
Description: Mouse bone marrow from inbred C57BL/6 mice are obtained from Clonetics. Hematopoietic Sca+Lin− progenitors are enriched using SpinSep murine progenitor enrichment cocktail (StemCell Technologies) and cultured in Iscove's MDM with BUI 95000 (StemCell Technologies) in the presence of murine growth factors SCF, Flt3L, GM-CSF and M-CSF for 9 days, to promote expansion of Sca+ cells and a DC precursor phenotype and then in the presence of GM-CSF and TNF-α for 3 additional days to drive the cells to an immature DC phenotype. Enriched Sca+Lin− cells are cultured in the presence of DMSO (0.1%), SelCIDs™ at 10 μM or all-trans retinoic acid (ATRA) (ICN Biomedicals) at 10 μM from day 0. Compounds are added to cells at day 0 and day 9.
Analysis of Murine cell surface phenotype: murine cells are processed for double staining (14 min at RT) at day 9 and day 12; using FITC and PE conjugated mAbs. Antibodies used are from BD Pharmingen: Sca (PE), CD11b (FITC), Gr-1 ([…]), CD86 (PE), CD14 (PE), CD80 (PE), I-Ab (PE), CD40 (PE) and CD32.1/16.1 (FITC) from Miltenyi. Fluorescence analysis is performed on a FACScan flow cytometer ([…]) after acquisition of 10,000 events.

Compound: CC1=C(/C=C/C(C)=C/C=C/C(C)=C/C(=O)O)C(C)(C)CCC1 [ATRA, all-trans retinoic acid]
- CD80, I-A^b and Sca+ expression (by day 9): marked downregulation
- expression of CD40 and CD80 (by day 12): marked downregulation

— patent US20050118715A1, “Modulation of stem and progenitor cell differentiation, assays, and uses thereof” (priority 2002, published 2005)
